# Experimental data reported in patent US20160077077A1, “Zinc Fluorescent Probe” (The Procter & Gamble Company, priority 2014, published 2016).
# How the values were obtained:
# [1] = Assessing Zn chelation effectiveness (R3 fluorescence with various zinc compounds)
# Procedure: Another application of the composition of the present invention is assessing the effectiveness of a zinc chelator or a zinc chelating system. One aspect of the invention provides a method of assessing the Zn^2+ chelating effectiveness of Zn^2+ chelator or a Zn^2+ chelating system comprising the steps: (a) incubating the Zn^2+ chelator or a Zn^2+ chelating system with a compound of the present invention; (b) shining excitation light to the incubated Zn^2+ chelator or a Zn^2+ chelating system; and (c) detecting light emission from the compound from 560 nm to 660 nm.
# There are at least three variables that may affect zinc chelation. Firstly, the inherent characteristic of any particularly zinc chelator compound. Such compounds include lactate, sulfate, nitrate, chloride, citrate, anions, and the like. Mechanism of actions may include ionic interaction (as in a salt) or covalent binding. Another variable is the concentration of one or more zinc chelators in a zinc chelating system. Generally, the more of a zinc chelator the more zinc chelation is observed. […]
# Table 2 is the fluorescent relative intensity of inventive Compound R3 (5.0×10^−5 M) upon the addition of various zinc compounds. Each sample contains the same level of zinc ion (5.0×10^−4 M) in H2O/DMSO (1000:1, V/V) solution, with fluorescence assessed at an excitation of 560 nm.
# [2] = Metal ion sensing (fluorescence response of Compound R3 to Zn^2+)
# Procedure: (§1) The procedure for metal ion sensing is described. Solutions of the metal ions (10.0 mM) are prepared in deionized water. A stock solutions of Compound R3 (0.2 mM) is prepared in ethanol and then diluted to 20 μM with ethanol-water (1: 1, v/v, pH 7.04) for spectral measurement. For titration experiments, a 2.0 mL solution of Compound R3 (20 μM) is filled in a quartz optical cell of 1 cm optical path length. Zn^2+ stock solution is added into the quartz optical cell gradually by micro-pipette. Spectral data is recorded at 5 min after addition. In selectivity experiments, test samples are prepared by placing appropriate amounts of metal ion stock into 2.0 mL solution of R3 (20 μM). For fluorescence measurements, excitation is provided at 560 nm, while emission is collected from 565 nm to 700 nm.
# [3] = Metal ion sensing (fluorescence response of Compound R3 to Hg^2+); settings: excitation 560 nm
# Procedure: as §1, with “A stock solutions of Compound R3 (0.2 mM) is prepared in ethanol and then diluted to 20 μM with ethanol-water (1: 1, v/v, pH 7.04) for spectral measurement.” left out
# [4] = Metal ion sensing (fluorescence response of Compound R3 to Ca^2+); settings: Compound R3 2.0 × 10^−5M + Ca^2+ 20.0 × 10^−5M, ethanol-PBS (1:1, v/v, pH 8.04), excitation 560 nm
# Procedure: as §1, with “A stock solutions of Compound R3 (0.2 mM) is prepared in ethanol and then diluted to 20 μM with ethanol-water (1: 1, v/v, pH 7.04) for spectral measurement.” left out
# [5] = Metal ion sensing (fluorescence response of Compound R3 to other metal ions); settings: excitation 560 nm
# Procedure: as §1, with “A stock solutions of Compound R3 (0.2 mM) is prepared in ethanol and then diluted to 20 μM with ethanol-water (1: 1, v/v, pH 7.04) for spectral measurement.” left out
# [6] = system: HeLa cells; assay: Fluorescence imaging of intracellular Zn^2+ (CLSM); type: cell-based; settings: λex 543 nm, emission 560-660 nm
# Procedure: Confocal fluorescence imaging is performed with an OLYMPUS IX81 laser scanning microscope and a 60 ×oil-immersion objective lens. The microscope is equipped with multiple visible laser lines (405, 488, 543 nm). Images are collected and processed with Olympus FV10-ASW software.
# The HeLa cell line is provided by Biochemistry and Cell Biology (China). Cells are grown in DMEM (Dulbecco's modified Eagle's medium) supplemented with 10% FBS (Fetal Bovine serum) and 5% CO2 at 37° C.
# HeLa cells ([…]) are plated on […] glass cover slips and allowed to adhere for 24 hours. 10 μM of Compound R3 in the culture media containing 0.2% (v/v) DMSO is added to the cells. The cells are incubated at 37° C. for 30 min, and washed with PBS three times to remove the excess R3 probe and bathed in PBS (2 mL) before imaging. After washing with PBS (2 mL×3) to remove the excess probe, the cells are treated with 50 μM Zinc lactate for 30 min. Excitation of Compound R3 loaded cells at 543 nm is carried out with a semiconductor laser, and emission is collected at 560-660 nm (single channel).
# [7] = system: Streptococcus mutans (ATCC® 700610™); assay: Fluorescence imaging of Zn^2+ in bacteria (CLSM); type: cell-based; settings: λex 543 nm
# Procedure: The Streptococcus mutans is prepared by inoculating the single colony from the BHI agar plate into 5 mL BHI broth and incubating at 37° C. for 48 hours. The Streptococcus mutans are separately stained with 10 μM of Compound R3 at 37° C. for 60 min.
# FIG. 2a 2f are CLSM images of Streptococcus mutans (ATCC® 700610™) cells. FIGS. 2a, 2b, and 2c are said cells incubated with 10 μM of inventive Compound R3 for 60 min to assess base level background fluorescence noise. FIGS. 2d, 2e, and 2f are cells from the same sample pool subsequently incubated with 50 μM Zn^2+ for 60 min. And then red channel emission is collected at 560-660 nm for FIGS. 2b and 2e (λex=543 nm), while FIGS. 2a and 2d are bright-field images. FIG. 2c is an overlay of FIG. 2a and FIG. 2b, while FIG. 2f is an overlap of FIG. 2d and FIG. 2e.
SMILES,"Relative degree of zinc chelation effectiveness ([1]; among the zinc chelators tested (lactate, sulfate, citrate), from Table 2)","Fluorescence of the solution without metal ion ([2]; Compound R3 20 μM in control ethanol-water (1:1, v/v, pH 7.04), no Zn^2+)","Fluorescence at 580 nm on addition of Zn^2+ ([2]; Compound R3 20 μM, ethanol-water (1:1, v/v, pH 7.04), Zn^2+ 0-12 eq, excitation 560 nm)","Fluorescence intensity in presence of Zn^2+ (selectivity) ([2]; Compound R3 20 μM, ethanol-water (1:1, v/v, pH 7.04), excitation 560 nm)","Peak Fluorescence Intensity (a.u.) at 570-580 nm ([2]; Compound R3 2.0 × 10^−5M + Zn^2+ 20.0 × 10^−5M, ethanol-PBS (1:1, v/v, pH 8.04), excitation 560 nm)","Fluorescence intensity in presence of Hg^2+ (selectivity) ([3]; Compound R3 20 μM, ethanol-water (1:1, v/v, pH 7.04))","Peak Fluorescence Intensity (a.u.) at 570-580 nm ([3]; Compound R3 2.0 × 10^−5M + Hg^2+ 20.0 × 10^−5M, ethanol-PBS (1:1, v/v, pH 8.04))",Peak Fluorescence Intensity (a.u.) at 570-580 nm [4],"Fluorescence intensity in presence of other transition and heavy metal ions (selectivity) ([5]; Compound R3 20 μM, ethanol-water (1:1, v/v, pH 7.04), K^+, Ag^+, Ca^2+, Mg^2+, Pb^2+, Ni^2+, Mn^2+, Co^2+, Cd^2+, Cu^2+, Fe^2+, Cr^3+, Li^+, Ba^2+, Fe^3+, Na^+)","Peak Fluorescence Intensity (a.u.) at 570-580 nm ([5]; Compound R3 2.0 × 10^−5M + other metal ions (K^+, Ag^+, Ca^2+, Mg^2+, Pb^2+, Ni^2+, Mn^2+, Co^2+, Cd^2+, Cu^2+, Fe^2+, Cr^3+, Li^+, Ba^2+, Fe^3+, Na^+) 20.0 × 10^−5M, ethanol-PBS (1:1, v/v, pH 8.04))","Intracellular fluorescence in HeLa cells after Zn^2+ ([6]; 10 μM Compound R3 30 min at 37° C., then 50 μM Zn^2+ 30 min)","Fluorescence emission in HeLa cells without Zn^2+ ([6]; 10 μM Compound R3, 30 min, 37° C., no Zn^2+ (FIG. 1b))","Fluorescence in Streptococcus mutans after Zn^2+ ([7]; 10 μM Compound R3 60 min at 37° C., then 50 μM Zn^2+ 60 min, emission 560-660 nm (FIG. 2e))","Fluorescence emission in Streptococcus mutans without Zn^2+ ([7]; 10 μM Compound R3, 60 min, 37° C., emission 560-660 nm, no Zn^2+ (FIG. 2b))","Peak Fluorescence Intensity (a.u.) at 570-580 nm ([1]; Compound R3 5.0×10^−5 M only (control, no zinc), H2O/DMSO (1000:1, V/V), excitation 560 nm)"
"CC(O)C(=O)[O-].CC(O)C(=O)[O-].[Zn+2] (stereo not drawn) [zinc lactate, reference compound]",weakest relative degree of zinc chelation effectiveness,,,,,,,,,,,,,,
"CCN(CC)c1ccc2c(c1)Oc1cc(N(CC)CC)ccc1C21c2ccccc2C(=O)N1CCNCc1ccc[nH]1 [Compound R3, 2-(2-(((1H-pyrrol-2-yl)methyl)amino)ethyl)-3′,6′-bis(diethylamino)spiro[isoindoline-1,9′-xanthen]-3-one]",,non fluorescent,turned on and grew drastically,greatest fluorescence intensity,0.7 a.u.,greatest fluorescence intensity,1.0 a.u.,0.25 a.u.,minimal fluorescence intensity,<0.1 a.u.,significant fluorescence increase,no fluorescence emission,significant fluorescence increase,no fluorescence emission,0.1 a.u.
